row,Compound,melting point [°C]
1,COC(=O)CC(=O)c1ccc(C#N)cc1,93 to 98
2,CC(O)c1ccc2nc(NC(=O)c3ccc(C(C)(C)C)cc3)cn2c1 (configuration not stated),249 to 250
3,CCOC(=O)C1=C(C)NC(C)=C(/C=C/S(=O)(=O)NC(C)C)C1Cc1cccc([N+](=O)[O-])c1 (configuration not stated),191 to 193
4,COc1cc(C)nc(NC(=O)NS(=O)(=O)c2c(C)nn(C)c2OC)n1,183 to 184
5,COc1ccc(Nc2ncc3ccc(=O)n(C(C)C)c3n2)cc1,170
6,O=C(O)CCN1CCN(c2ccc(F)cc2)CC1,178 to 180
7,O=C(Nc1ccc(OCCCN2CCc3ccccc3C2)cc1)c1cccc2c(=O)c3ccccc3[nH]c12,182
8,Nc1ccc(SCCOC2OC(CO)C(OC3OC(CO)C(O)C(O)C3O)C(O)C2O)cc1 (configuration not stated),104 to 106
9,CC1(C)Cc2c(c(O)cc3c2C(c2cccc(-c4ccc(NC(=O)OCc5ccccc5)cc4)c2)=NCC3(C)C)O1,161 to 165
10,COc1ccccc1P1(=O)c2ccccc2CN1c1ccccc1 (configuration not stated),189 to 191
11,OC(C#CI)(c1ccc(-c2ccccc2)cc1)c1cccc(Cl)c1 (configuration not stated),99 to 100
12,CN(C)CC(O)COc1ccccc1CCCCc1ccccc1C(N)=O (configuration not stated),149 to 151
13,Cc1cccc(C)c1NC(=O)Cn1ccnc1,160 to 162
14,CCC[C@H]1CC[C@H]([C@H]2CC[C@H](c3ccc(C#N)cc3)CC2)CC1,55
15,COC(=O)c1cccc(-c2nnc(-c3ccc(C(C)C)cc3)o2)c1,74 to 77
16,Cc1ccc(-c2ccc(-c3nnn[nH]3)cc2)cc1C,192 to 194
17,COC(=O)c1ccccc1Sc1cc(C=O)ccc1OC,99 to 104
18,Clc1cc(Cl)c2cccc3c2c1N=C3NCCCCCn1ccnc1,191 to 192
19,O=C(NC1=NCCS1)c1c(C(F)(F)F)nc(-c2ccccc2)c(-c2ccccc2)c1O,280
20,CCOC(=O)CCCCC(=O)c1ccc2cc(O)ccc2c1,139 to 142
21,Nc1ccc(-c2ccnc(-c3ccc(C(F)(F)F)cc3)n2)cc1,166 to 167
22,NC(=O)[C@@H]1CCCN1C(=O)/C=C/S(=O)(=O)c1ccccc1,157 to 158
23,CC(C)C(OC(=O)NC(C)(Cc1ccccc1)C(=O)NC(C)(C)c1ccccc1)c1ccccc1 (configuration not stated),115 to 123
24,COc1ccc(CN2C(=O)C3(COc4cc5c(cc43)CCO5)c3ccccc32)cc1 (configuration not stated),120 to 121

row,Compound,melting point [°C]
1,O=C(Cc1ccccc1)NCc1cccc2c1C(=O)N(C1CCC(=O)NC1=O)C2=O (configuration not stated),128 to 130
2,COC(=O)CN(C)C(=S)c1cccc2c(SC(F)(F)F)c(OC)ccc12,121 to 123
3,Cc1cc2nc3ccc(C(=O)O)cn3c(=O)c2s1,338 to 340
4,CC1CC2C3CCC4=CC(=O)C=CC4(C)C3=CCC2(C)C1C(=O)CN1CCN(c2cc(N3CCCC3)nc(NC34CC5CC(CC(C5)C3)C4)n2)CC1 (configuration not stated),155 to 172
5,CSc1nc2ccc(C)cc2c(=O)s1,114
6,Cn1c(-c2ccccc2S(=O)c2nc3ccccc3[nH]2)nc2ccccc21 (configuration not stated),164
7,CSc1ncc2cc(Br)c(=O)[nH]c2n1,266 to 270
8,N#CCc1c[nH]c2ccc(NC(N)=S)cc12,212 to 214
9,COC(=O)CCC(=O)c1cc(OC)ccc1OCC(O)CNC(C)(C)C (configuration not stated),70 to 72
10,O=Cc1cc(-c2ccccc2)nn1Cc1ccc(Cl)cc1Cl,135 to 137
11,CCOC(=O)c1cc2cc(C3=NNC(=O)CC3)ccc2[nH]1,235 to 237
12,O=C(CN1CC(c2ccc(Cl)cc2)CC1=O)N1CCNCC1 (configuration not stated),148 to 150
13,CCCCCCc1ccc(C#Cc2ccc(C=O)cc2)cc1,67
14,COc1cc(C)cc(-c2nn(CC#N)cc2-c2cc(NC[C@H](C)O)nc(Cl)n2)c1,197
15,CCCCCCOc1ccc(C=[N+]([O-])CCCCCC[N+]([O-])=Cc2ccc(OCCCCCC)cc2)cc1,80
16,O=[N+]([O-])c1cnccc1NCCCCO,80 to 82
17,COc1ccc(C(=O)c2cccc(OCc3nc(-c4ccccc4)oc3C)c2)c(OCC(=O)O)c1,198 to 199
18,COc1ccc(-c2ccc(Br)c3ccsc23)cc1,103 to 104
19,CC(C)c1sc2ncnc(N)c2c1-c1ccc(N)cc1,187 to 189
20,CCc1ccc(Nc2c(C(=O)NN)ccc(F)c2F)c(F)c1,97.9 to 98.5
21,O=C1NC(=O)C(Cc2ccc3c(c2)CN(c2ccccn2)CCO3)S1 (configuration not stated),180 to 181
22,CCOC(=O)Cc1ccc(NC(=O)N2CCn3c(c(C(N)=O)c(C#N)c3C3CC3)C2)cc1,263 to 264
23,O=C1CC2(C(=O)N1)C(=O)N1CCCc3cc(Cl)cc2c31 (configuration not stated),268 to 269
24,CCOC(=O)c1cc2cc(-c3ccccc3)ccc2[nH]1,173 to 174

row,Compound,melting point [°C]
1,O=C(NCc1ccc(Cl)cc1)c1cnc2sc(C#CCO)cc2c1O,233 to 236
2,Nc1ncnc2ncn(COCCCl)c12,184 to 186
3,c1ccc(Nc2nnc(-c3cccnc3)s2)cc1,252 to 255
4,CC(=O)COC1CC2C3CCC4=CC(=O)C=CC4(C)C3(F)C(O)CC2(C)C1(O)C(=O)CCl (configuration not stated),226 to 227
5,CCCCCCCCNC(=O)N=C(NC(=O)NCC)OC,88 to 90
6,O=C(Nc1cnc(-c2ccccc2)nc1Cl)OCc1ccccc1,120 to 121
7,O=C(NCCO)c1cc(-c2cccc3cc(Cc4cccc(C(F)(F)F)c4)sc23)ncc1F,110 to 111
8,COc1cc(OC)nc(SCc2nc(C(F)(F)F)ccc2C(=O)O)n1,123 to 124
9,CNC(=S)NCCSCc1cncs1,86 to 88
10,COc1ccc(Cl)cc1-n1c(N(C)C)nc2cc(C(F)(F)F)ccc21,230 to 234
11,CC(C)(C)OC(=O)CON=C(C(=O)O)c1cccs1,88.3 to 91.3
12,Cn1c2ccccc2c(=O)c2c([N+](=O)[O-])cccc21,308 to 309
13,Cc1ccc([N+](=O)[O-])c(C(=O)N[C@@H]2c3cc(OC(F)(F)F)ccc3OC(C)(C)[C@H]2O)c1,185 to 187
14,CC(C)c1[nH]n(-c2c(Cl)cncc2Cl)c2nc(Cc3ccc(CN4CCCC4)c(O)c3)nc(=O)c1-2,209
15,COc1cc(OC)c2c(=O)cc(-c3ccc(OC)c(I)c3)oc2c1,209 to 210
16,CCCCOc1nsnc1OC[C@@H]1CCCN1,99 to 100
17,CCCCCCCC(=O)Oc1ccc2nc(S(N)(=O)=O)sc2c1,114
18,O=C(c1ccc([N+](=O)[O-])c(O)c1)N1CCOCC1,106
19,CC(C)c1cc(C(C)(C)C)cc(-c2ccc(F)cc2)c1O,109 to 111
20,Nc1nccc(-c2c[nH]c3nccc(Cl)c23)n1,> 210
21,O=[N+]([O-])c1ccc(Cl)c(N=Cc2ccccc2O)c1,168 to 169
22,COc1c(Br)cc(-c2c3ccccc3cc3sc4ccccc4c23)cc1Br,238 to 240
23,FC(F)(F)C1(c2cc(Cl)cc(Cl)c2)CC(c2ccc(-n3cccn3)cc2)=NO1 (configuration not stated),174 to 175
24,Cc1sc2c(c1C)C(c1ccc(Cl)cc1)=NC(CC(=O)Nc1ncccn1)c1nnc(C)n1-2 (configuration not stated),251 to 253

# Source: a melting point compilation (Tetko et al.; mined from patent text by program, amines drawn as free bases though some values may be those of a salt)
